Measurements from the kinase profiling compilation of Christmann-Franck et al. (2016).

Columns and labels:
Assay in all cases: radiometric filter-binding kinase assay, Kinase HotSpot
Details in all cases: compound 0.5 µM; ATP 10 µM
PNCK (human) = PNCK (human) (UniProt Q6P2M8)
MYLK2 (human) = MYLK2 (human) (UniProt Q9H1R3)
PLK1 (human) = PLK1 (human) (UniProt P53350)
AKT1 (human) = AKT1 (human) (UniProt P31749)
PRKCE (human) = PRKCE (human) (UniProt Q02156)
GRK5 (human) = GRK5 (human) (UniProt P34947)
MUSK (human) = MUSK (human) (UniProt O15146)
PTK2 (human) = PTK2 (human) (UniProt Q05397)
MAPKAPK3 (human) = MAPKAPK3 (human) (UniProt Q16644)
MST4 (human) = MST4 (human) (UniProt Q9P289)
ROCK2 (human) = ROCK2 (human) (UniProt O75116)
INSRR (human) = INSRR (human) (UniProt P14616)
CSNK1E (human) = CSNK1E (human) (UniProt P49674)
PRKCB1 (human) = PRKCB1 (human) (UniProt P05771)
EPHA8 (human) = EPHA8 (human) (UniProt P29322)
NEK1 (human) = NEK1 (human) (UniProt Q96PY6)
MAP4K5 (human) = MAP4K5 (human) (UniProt Q9Y4K4)
ADRBK2 (human) = ADRBK2 (human) (UniProt P35626)
MAP3K8 (human) = MAP3K8 (human) (UniProt P41279)
TEC (human) = TEC (human) (UniProt P42680)
PDGFRA (human) = PDGFRA (human) (UniProt P16234)
CDC42BPA (human) = CDC42BPA (human) (UniProt Q5VT25)
PRKD1 (human) = PRKD1 (human) (UniProt Q15139)
KIT (human) = KIT (human) (UniProt P10721)
DYRK3 (human) = DYRK3 (human) (UniProt O43781)
FER (human) = FER (human) (UniProt P16591)
SGK2 (human) = SGK2 (human) (UniProt Q9HBY8)
CDK5 CDK5R1 p25 (human) = CDK5 CDK5R1 p25 (human) (UniProt Q00535+Q15078)
IKBKE (human) = IKBKE (human) (UniProt Q14164)
CSNK1G2 (human) = CSNK1G2 (human) (UniProt P78368)
CSF1R (human) = CSF1R (human) (UniProt P07333)
ROS1 (human) = ROS1 (human) (UniProt P08922)
FLT3 (human) = FLT3 (human) (UniProt P36888)
EPHA5 (human) = EPHA5 (human) (UniProt P54756)
ULK1 (human) = ULK1 (human) (UniProt O75385)
EPHB2 (human) = EPHB2 (human) (UniProt P29323)
PAK6 (human) = PAK6 (human) (UniProt Q9NQU5)
NEK3 (human) = NEK3 (human) (UniProt P51956)
MAP3K2 (human) = MAP3K2 (human) (UniProt Q9Y2U5)
PRKCB2 (human) = PRKCB2 (human) (UniProt P05771)
STK25 (human) = STK25 (human) (UniProt O00506)
INSR (human) = INSR (human) (UniProt P06213)

Sequence of PTK2 (human) (Q05397 whole entry, looked up): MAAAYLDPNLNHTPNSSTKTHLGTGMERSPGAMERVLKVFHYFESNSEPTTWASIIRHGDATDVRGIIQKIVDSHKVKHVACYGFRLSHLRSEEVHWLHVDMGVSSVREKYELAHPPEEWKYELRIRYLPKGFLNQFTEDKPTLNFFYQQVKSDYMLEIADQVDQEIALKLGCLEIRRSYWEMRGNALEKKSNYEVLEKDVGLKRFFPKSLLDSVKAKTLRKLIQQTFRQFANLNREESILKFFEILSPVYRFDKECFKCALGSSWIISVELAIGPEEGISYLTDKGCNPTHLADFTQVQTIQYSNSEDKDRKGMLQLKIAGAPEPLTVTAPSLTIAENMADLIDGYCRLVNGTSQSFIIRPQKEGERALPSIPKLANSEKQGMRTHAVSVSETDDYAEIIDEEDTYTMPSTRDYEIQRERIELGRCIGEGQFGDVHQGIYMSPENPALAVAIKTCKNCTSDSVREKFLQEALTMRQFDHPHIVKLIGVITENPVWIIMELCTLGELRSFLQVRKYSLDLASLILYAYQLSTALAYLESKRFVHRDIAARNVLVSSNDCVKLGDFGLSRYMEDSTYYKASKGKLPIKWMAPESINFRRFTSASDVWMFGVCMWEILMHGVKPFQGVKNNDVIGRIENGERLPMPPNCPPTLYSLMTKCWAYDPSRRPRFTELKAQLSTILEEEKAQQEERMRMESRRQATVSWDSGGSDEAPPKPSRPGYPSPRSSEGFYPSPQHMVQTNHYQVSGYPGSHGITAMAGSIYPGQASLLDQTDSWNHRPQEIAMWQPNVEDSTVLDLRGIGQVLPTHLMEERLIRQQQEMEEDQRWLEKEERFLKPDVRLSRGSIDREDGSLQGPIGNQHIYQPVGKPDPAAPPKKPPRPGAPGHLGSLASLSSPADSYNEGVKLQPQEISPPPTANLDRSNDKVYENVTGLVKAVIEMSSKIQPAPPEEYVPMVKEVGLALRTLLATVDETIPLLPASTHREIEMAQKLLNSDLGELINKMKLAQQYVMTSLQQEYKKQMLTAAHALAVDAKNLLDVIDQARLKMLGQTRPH
Sequence of CDC42BPA (human) (Q5VT25 whole entry, looked up): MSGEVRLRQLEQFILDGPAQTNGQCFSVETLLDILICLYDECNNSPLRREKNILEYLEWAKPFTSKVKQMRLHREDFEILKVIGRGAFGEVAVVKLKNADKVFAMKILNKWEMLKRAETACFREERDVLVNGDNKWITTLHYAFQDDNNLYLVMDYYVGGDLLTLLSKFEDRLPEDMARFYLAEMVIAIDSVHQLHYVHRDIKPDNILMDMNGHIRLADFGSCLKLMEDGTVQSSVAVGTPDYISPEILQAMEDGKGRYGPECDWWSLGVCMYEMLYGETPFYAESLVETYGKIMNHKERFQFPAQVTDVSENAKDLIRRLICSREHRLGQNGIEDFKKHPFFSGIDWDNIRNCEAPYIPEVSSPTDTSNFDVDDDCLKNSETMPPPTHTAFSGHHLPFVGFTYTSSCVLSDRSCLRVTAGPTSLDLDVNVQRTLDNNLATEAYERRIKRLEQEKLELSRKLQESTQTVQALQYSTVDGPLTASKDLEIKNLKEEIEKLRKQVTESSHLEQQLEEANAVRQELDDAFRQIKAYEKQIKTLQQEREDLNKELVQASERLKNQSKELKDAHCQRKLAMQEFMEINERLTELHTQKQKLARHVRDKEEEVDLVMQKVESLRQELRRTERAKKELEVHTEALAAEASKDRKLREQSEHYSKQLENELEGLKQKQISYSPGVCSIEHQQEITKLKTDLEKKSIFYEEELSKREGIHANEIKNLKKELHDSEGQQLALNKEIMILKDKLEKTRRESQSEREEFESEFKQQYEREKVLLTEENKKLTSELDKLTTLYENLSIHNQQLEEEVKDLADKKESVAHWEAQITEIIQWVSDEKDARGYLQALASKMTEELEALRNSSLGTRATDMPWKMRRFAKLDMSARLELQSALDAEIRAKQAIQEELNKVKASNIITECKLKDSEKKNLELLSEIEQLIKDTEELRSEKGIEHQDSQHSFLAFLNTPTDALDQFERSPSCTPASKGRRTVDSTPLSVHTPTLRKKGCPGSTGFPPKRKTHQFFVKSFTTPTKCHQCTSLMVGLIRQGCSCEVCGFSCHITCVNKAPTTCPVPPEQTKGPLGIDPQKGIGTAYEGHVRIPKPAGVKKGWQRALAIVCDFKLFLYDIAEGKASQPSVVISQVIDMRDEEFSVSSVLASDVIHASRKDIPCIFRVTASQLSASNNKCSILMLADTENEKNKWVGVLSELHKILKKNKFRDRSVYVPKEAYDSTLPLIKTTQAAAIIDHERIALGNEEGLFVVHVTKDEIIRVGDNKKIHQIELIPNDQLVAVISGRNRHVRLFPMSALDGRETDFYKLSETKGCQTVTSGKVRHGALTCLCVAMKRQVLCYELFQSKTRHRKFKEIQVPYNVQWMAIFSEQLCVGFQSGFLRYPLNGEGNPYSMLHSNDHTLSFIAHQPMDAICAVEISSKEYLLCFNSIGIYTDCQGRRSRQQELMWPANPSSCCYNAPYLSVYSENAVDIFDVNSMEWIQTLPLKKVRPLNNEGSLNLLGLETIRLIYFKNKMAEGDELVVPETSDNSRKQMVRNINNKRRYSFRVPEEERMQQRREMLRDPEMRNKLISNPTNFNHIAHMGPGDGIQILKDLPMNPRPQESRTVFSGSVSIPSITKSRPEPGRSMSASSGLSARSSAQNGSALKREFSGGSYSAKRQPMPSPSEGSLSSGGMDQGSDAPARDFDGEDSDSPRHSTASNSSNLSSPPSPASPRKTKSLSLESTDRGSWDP
Sequence of ADRBK2 (human) (P35626 whole entry, looked up): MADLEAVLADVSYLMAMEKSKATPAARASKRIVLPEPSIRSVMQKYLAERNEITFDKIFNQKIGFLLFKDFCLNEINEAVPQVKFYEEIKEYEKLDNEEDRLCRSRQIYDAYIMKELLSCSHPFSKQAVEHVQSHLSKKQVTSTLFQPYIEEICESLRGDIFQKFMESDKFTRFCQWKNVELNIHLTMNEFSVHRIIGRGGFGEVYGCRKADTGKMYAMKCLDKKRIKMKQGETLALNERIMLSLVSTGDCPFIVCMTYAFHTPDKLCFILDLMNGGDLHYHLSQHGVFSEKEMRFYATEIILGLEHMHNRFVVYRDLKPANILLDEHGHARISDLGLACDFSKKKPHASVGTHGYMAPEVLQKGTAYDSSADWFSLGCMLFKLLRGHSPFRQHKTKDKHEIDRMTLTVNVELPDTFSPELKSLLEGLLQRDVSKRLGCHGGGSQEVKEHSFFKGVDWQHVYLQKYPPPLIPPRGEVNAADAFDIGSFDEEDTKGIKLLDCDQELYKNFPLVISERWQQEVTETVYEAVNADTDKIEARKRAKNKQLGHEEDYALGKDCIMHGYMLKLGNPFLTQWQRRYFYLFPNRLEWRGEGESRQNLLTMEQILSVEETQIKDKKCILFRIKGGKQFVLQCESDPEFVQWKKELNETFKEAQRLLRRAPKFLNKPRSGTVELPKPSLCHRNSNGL
Sequence of CSF1R (human) (P07333 whole entry, looked up): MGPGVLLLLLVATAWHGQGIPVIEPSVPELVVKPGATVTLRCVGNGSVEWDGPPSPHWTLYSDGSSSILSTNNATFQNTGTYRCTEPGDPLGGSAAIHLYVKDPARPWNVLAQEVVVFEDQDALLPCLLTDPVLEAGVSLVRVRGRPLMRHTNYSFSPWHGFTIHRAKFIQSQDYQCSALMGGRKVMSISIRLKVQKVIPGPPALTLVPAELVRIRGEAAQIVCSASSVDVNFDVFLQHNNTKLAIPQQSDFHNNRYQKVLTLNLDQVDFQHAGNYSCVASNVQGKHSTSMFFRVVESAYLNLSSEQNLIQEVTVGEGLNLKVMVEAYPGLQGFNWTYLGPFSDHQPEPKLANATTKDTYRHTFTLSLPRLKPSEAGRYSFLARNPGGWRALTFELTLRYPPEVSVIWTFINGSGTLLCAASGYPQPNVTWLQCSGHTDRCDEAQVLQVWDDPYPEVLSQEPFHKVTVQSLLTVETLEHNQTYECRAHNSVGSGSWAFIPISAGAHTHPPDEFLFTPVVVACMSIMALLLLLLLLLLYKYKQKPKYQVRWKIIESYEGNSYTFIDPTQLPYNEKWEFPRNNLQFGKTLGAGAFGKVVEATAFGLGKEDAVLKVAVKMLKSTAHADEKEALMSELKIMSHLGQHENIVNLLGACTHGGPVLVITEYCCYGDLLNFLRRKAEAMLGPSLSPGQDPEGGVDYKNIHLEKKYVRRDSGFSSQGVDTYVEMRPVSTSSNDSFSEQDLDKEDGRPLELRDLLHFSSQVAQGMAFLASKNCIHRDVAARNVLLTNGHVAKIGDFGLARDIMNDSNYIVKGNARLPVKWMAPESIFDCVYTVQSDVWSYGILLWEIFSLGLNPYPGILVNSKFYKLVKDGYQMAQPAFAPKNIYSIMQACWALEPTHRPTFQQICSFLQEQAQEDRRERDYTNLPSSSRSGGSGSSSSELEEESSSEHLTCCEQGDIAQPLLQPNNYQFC
Sequence of MAP3K8 (human) (P41279 whole entry, looked up): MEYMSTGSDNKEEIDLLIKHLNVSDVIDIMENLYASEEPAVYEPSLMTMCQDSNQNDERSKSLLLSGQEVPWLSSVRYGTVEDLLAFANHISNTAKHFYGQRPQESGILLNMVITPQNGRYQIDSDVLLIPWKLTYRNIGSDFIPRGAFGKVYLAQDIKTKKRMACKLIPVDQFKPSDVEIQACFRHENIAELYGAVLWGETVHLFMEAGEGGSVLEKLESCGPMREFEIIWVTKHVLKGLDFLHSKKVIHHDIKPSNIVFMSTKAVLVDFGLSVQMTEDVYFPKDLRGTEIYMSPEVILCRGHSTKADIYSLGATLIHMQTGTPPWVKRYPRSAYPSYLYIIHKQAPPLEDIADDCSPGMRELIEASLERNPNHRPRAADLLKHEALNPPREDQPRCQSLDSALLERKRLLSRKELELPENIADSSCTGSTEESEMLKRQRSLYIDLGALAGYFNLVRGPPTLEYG

Nc1nccc(-c2c(-c3ccc(F)cc3)ncn2C2CCNCC2)n1
residual activity (PNCK (human)): 94.3%
residual activity (MYLK2 (human)): 103%
residual activity (PLK1 (human)): 101%
residual activity (AKT1 (human)): 99.9%
residual activity (PRKCE (human)): 105%
residual activity (GRK5 (human)): 103%
residual activity (MUSK (human)): 86.9%
residual activity (PTK2 (human)): 94.1%
residual activity (MAPKAPK3 (human)): 99.4%
residual activity (MST4 (human)): 98.4%
residual activity (ROCK2 (human)): 103%
residual activity (INSRR (human)): 103%
residual activity (CSNK1E (human)): 2.39%
residual activity (PRKCB1 (human)): 91%
residual activity (EPHA8 (human)): 101%
residual activity (NEK1 (human)): 100%
residual activity (MAP4K5 (human)): 68.1%
residual activity (ADRBK2 (human)): 97.6%
residual activity (MAP3K8 (human)): 102%
residual activity (TEC (human)): 110%
residual activity (PDGFRA (human)): 95.8%
residual activity (CDC42BPA (human)): 101%
residual activity (PRKD1 (human)): 54.6%
residual activity (KIT (human)): 98.4%
residual activity (DYRK3 (human)): 96%
residual activity (FER (human)): 98.3%
residual activity (SGK2 (human)): 96.9%
residual activity (CDK5 CDK5R1 p25 (human)): 95.4%
residual activity (IKBKE (human)): 99.5%
residual activity (CSNK1G2 (human)): 119%
residual activity (CSF1R (human)): 100%
residual activity (ROS1 (human)): 94.1%
residual activity (FLT3 (human)): 90.3%
residual activity (EPHA5 (human)): 97.8%
residual activity (ULK1 (human)): 95.3%
residual activity (EPHB2 (human)): 103%
residual activity (PAK6 (human)): 111%
residual activity (NEK3 (human)): 99%
residual activity (MAP3K2 (human)): 94%
residual activity (PRKCB2 (human)): 79.4%
residual activity (STK25 (human)): 99.8%

O=C1NC(=O)C(c2cn(CCCO)c3ncccc23)=C1c1cnccn1
residual activity (PNCK (human)): 94.9%
residual activity (MYLK2 (human)): 81.1%
residual activity (PLK1 (human)): 103%
residual activity (AKT1 (human)): 98.6%
residual activity (PRKCE (human)): 102%
residual activity (GRK5 (human)): 116%
residual activity (MUSK (human)): 67.1%
residual activity (PTK2 (human)): 101%
residual activity (MAPKAPK3 (human)): 103%
residual activity (MST4 (human)): 78.7%
residual activity (ROCK2 (human)): 96%
residual activity (INSRR (human)): 93.2%
residual activity (CSNK1E (human)): 93.9%
residual activity (EPHA8 (human)): 86.9%
residual activity (NEK1 (human)): 91.9%
residual activity (MAP4K5 (human)): 37.5%
residual activity (ADRBK2 (human)): 99.9%
residual activity (MAP3K8 (human)): 97%
residual activity (TEC (human)): 120%
residual activity (PDGFRA (human)): 113%
residual activity (CDC42BPA (human)): 78.6%
residual activity (INSR (human)): 92.9%
residual activity (PRKD1 (human)): 107%
residual activity (KIT (human)): 93%
residual activity (DYRK3 (human)): 79.6%
residual activity (FER (human)): 99.2%
residual activity (SGK2 (human)): 96.9%
residual activity (CDK5 CDK5R1 p25 (human)): 103%
residual activity (IKBKE (human)): 90%
residual activity (CSNK1G2 (human)): 66%
residual activity (CSF1R (human)): 98.4%
residual activity (ROS1 (human)): 106%
residual activity (FLT3 (human)): 87.8%
residual activity (EPHA5 (human)): 99.4%
residual activity (ULK1 (human)): 102%
residual activity (EPHB2 (human)): 78.3%
residual activity (PAK6 (human)): 78.2%
residual activity (NEK3 (human)): 97.5%
residual activity (MAP3K2 (human)): 96.9%
residual activity (STK25 (human)): 78.9%

CN([C@@H](Cc1ccc(OS(=O)(=O)c2cccc3cnccc23)cc1)C(=O)N1CCN(c2ccccc2)CC1)S(=O)(=O)c1cccc2cnccc12
residual activity (PNCK (human)): 99.7%
residual activity (MYLK2 (human)): 98.8%
residual activity (PLK1 (human)): 96.7%
residual activity (AKT1 (human)): 102%
residual activity (PRKCE (human)): 99.5%
residual activity (GRK5 (human)): 95.6%
residual activity (MUSK (human)): 92.7%
residual activity (PTK2 (human)): 104%
residual activity (MAPKAPK3 (human)): 101%
residual activity (MST4 (human)): 109%
residual activity (ROCK2 (human)): 105%
residual activity (INSRR (human)): 94.9%
residual activity (CSNK1E (human)): 103%
residual activity (PRKCB1 (human)): 95.9%
residual activity (EPHA8 (human)): 99.6%
residual activity (NEK1 (human)): 102%
residual activity (MAP4K5 (human)): 96.3%
residual activity (ADRBK2 (human)): 113%
residual activity (MAP3K8 (human)): 99.3%
residual activity (TEC (human)): 98.9%
residual activity (PDGFRA (human)): 99.6%
residual activity (CDC42BPA (human)): 98.9%
residual activity (INSR (human)): 98.8%
residual activity (PRKD1 (human)): 101%
residual activity (KIT (human)): 96.3%
residual activity (DYRK3 (human)): 112%
residual activity (FER (human)): 100%
residual activity (SGK2 (human)): 100%
residual activity (CDK5 CDK5R1 p25 (human)): 93.5%
residual activity (IKBKE (human)): 92.6%
residual activity (CSNK1G2 (human)): 100%
residual activity (CSF1R (human)): 95.1%
residual activity (ROS1 (human)): 96.5%
residual activity (FLT3 (human)): 103%
residual activity (EPHA5 (human)): 102%
residual activity (ULK1 (human)): 101%
residual activity (EPHB2 (human)): 103%
residual activity (PAK6 (human)): 102%
residual activity (NEK3 (human)): 99.8%
residual activity (MAP3K2 (human)): 98.9%
residual activity (STK25 (human)): 98.8%

COc1ccc(CNC(=O)Nc2ncc([N+](=O)[O-])s2)cc1
residual activity (PNCK (human)): 99.3%
residual activity (MYLK2 (human)): 98.5%
residual activity (PLK1 (human)): 102%
residual activity (AKT1 (human)): 102%
residual activity (PRKCE (human)): 92.4%
residual activity (GRK5 (human)): 104%
residual activity (MUSK (human)): 115%
residual activity (PTK2 (human)): 101%
residual activity (MAPKAPK3 (human)): 103%
residual activity (MST4 (human)): 113%
residual activity (ROCK2 (human)): 99.8%
residual activity (INSRR (human)): 99.2%
residual activity (CSNK1E (human)): 102%
residual activity (PRKCB1 (human)): 103%
residual activity (EPHA8 (human)): 109%
residual activity (NEK1 (human)): 94.3%
residual activity (MAP4K5 (human)): 93.9%
residual activity (ADRBK2 (human)): 112%
residual activity (MAP3K8 (human)): 96.2%
residual activity (TEC (human)): 97.7%
residual activity (PDGFRA (human)): 93%
residual activity (CDC42BPA (human)): 93.7%
residual activity (PRKD1 (human)): 104%
residual activity (KIT (human)): 103%
residual activity (DYRK3 (human)): 105%
residual activity (FER (human)): 101%
residual activity (SGK2 (human)): 99.5%
residual activity (CDK5 CDK5R1 p25 (human)): 97.7%
residual activity (IKBKE (human)): 99.8%
residual activity (CSNK1G2 (human)): 100%
residual activity (CSF1R (human)): 99.2%
residual activity (ROS1 (human)): 100%
residual activity (FLT3 (human)): 98.9%
residual activity (EPHA5 (human)): 117%
residual activity (ULK1 (human)): 97.7%
residual activity (EPHB2 (human)): 88.4%
residual activity (PAK6 (human)): 106%
residual activity (NEK3 (human)): 78.6%
residual activity (MAP3K2 (human)): 94.1%
residual activity (PRKCB2 (human)): 103%
residual activity (STK25 (human)): 98.6%
